Results: patent publication US11072601B2, “μ-opioid receptor agonist and preparation method therefor and use thereof in field of medicine” (SHANGHAI SYNERGY PHARMACEUTICAL SCIENCES CO., LTD., priority 2017, dated 2021)

Legend:
μ opioid receptor (MOR) = target: T1, μ opioid receptor (MOR) (Homo sapiens, UniProt P35372); assay: cell-based; settings: HEK293 stably expressing μ opioid receptor, FLIPR calcium
T1 construct: host or cells: HEK293

SD rats = assay: Respiratory depression in rats, arterial blood gas PCO2; type: in vivo; settings: for PCO2, 5 min before administration: arterial blood; for PCO2, 5 min after administration / PCO2, 30 min after administration / PCO2, 60 min after administration / PCO2, 120 min after administration: intravenous single dose 0.3 mg/kg (morphine 24 mg/kg)
[1] = Pharmacokinetic test in rats, intravenous; type: in vivo; settings: male, SD, rat, plasma, intravenous 1 mg/kg; for AUC: read-out: curve area (AUC); for half-life: read-out: half life (T½) (converted); for Cmax: read-out: plasma concentration (Cmax)
From the text: 8-week-old male SD rats weighing 200-300 g were used as experimental animals, and LC/MS/MS method was used to determine the drug concentration in plasma at different times after the administration of the compound of Example H01, the compound of Example H04, the compound of Example H05, the compound of Example H07, the compound of Example H16, the compound of Example H17, the compound of Example H18, the compound of Example H21, and the compound of Example H24. The pharmacokinetic behavior of the compounds of the present invention in rats was studied, and its pharmacokinetic characteristics were evaluated.
A certain amount of the compounds were weighed, and dissolved in ethanol/castor oil/water=10/10/80 to form a uniform solution.
The above compounds were administered intravenously to rats at a dose of 1 mg/kg, and 0.2 ml of blood was collected from the orbit at 0.083, 0.25, 0.5, 1.0, 2.0, 4.0, 6.0, 8.0, 12.0, 24.0 hours before and after administration, and placed in an anticoagulant tube, the plasma was separated by centrifugation at 6,000 rpm for 10 minutes at 4° C., and stored at −80° C.
50 μL of plasma was taken at different times, 150 μL of acetonitrile solution containing internal standard tolbutamide (200 ng/mL) was added, the system was mixed and shaked for 5 minutes, 12000 rpm, centrifuged for 5 minutes, 100 μL of supernatant was removed, and then mixed with 200 μL of water, then the sample was loaded for analysis. The internal standard tolbutamide solid (Aladdin, T129578) powder was dissolved in DMSO to prepare into a 1 mg/mL stock solution. The stock solution was diluted with 100% acetonitrile to obtain a solution of 200 ng/mL as a protein precipitator.
The liquid chromatography system was an LC-20AD UFLC high performance liquid chromatography system (Shimadzu, LC-20AD). The mass spectrometry system was an AB Sciex API4000 triple quadrupole mass spectrometer equipped with an electrospray ionization source (ESI) (Applied Biosystems, Canada). The software used to control the liquid-mass coanalyzer and quantitative analysis was Analyst 1.6 (Applied Biosystems, Canada), and the pharmacokinetic parameters were analyzed using WinNonlin (version 5.2, Pharsight, Mountain View, Calif.) non-compartment model.
Liquid chromatographic separation was performed using AQ-C18 column (50×2.1 mm, internal diameter of […]). The column temperature was maintained at room temperature.
The compound to be tested was dissolved in DMSO to prepare a stock solution with a concentration of 1 mg/mL, and diluted with 70% acetonitrile to obtain a series of standard working solutions with concentrations of 30, 10, 3, 1, 0.3, 0.1, 0.03, and 0.01. μg/mL, and a series of standard quality control solutions (24, 8 and 0.03 μg/mL). 5 μL of standard solution and 45 μL of blank plasma matrix were mixed uniformity to obtain standard solutions (3000, 1000, 300, 100, 30, 10, 3, and 1 ng/mL) and quality control standards (plasma samples: 2400, 800, 80, and 3 ng/mL) at each concentration point of the standard curve.

T1 sequence (P35372 whole entry, species assumed): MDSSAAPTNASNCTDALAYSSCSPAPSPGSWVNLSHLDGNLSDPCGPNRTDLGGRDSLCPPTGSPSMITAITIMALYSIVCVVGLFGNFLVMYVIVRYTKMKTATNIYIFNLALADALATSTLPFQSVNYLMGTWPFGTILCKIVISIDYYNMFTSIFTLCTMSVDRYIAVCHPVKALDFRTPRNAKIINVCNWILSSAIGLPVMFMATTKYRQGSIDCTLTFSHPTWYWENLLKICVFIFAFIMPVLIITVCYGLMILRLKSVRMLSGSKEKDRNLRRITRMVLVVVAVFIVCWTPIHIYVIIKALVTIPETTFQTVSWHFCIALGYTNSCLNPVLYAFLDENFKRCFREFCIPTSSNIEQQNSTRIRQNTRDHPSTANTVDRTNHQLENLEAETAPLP

SMILES | EC50 (μ opioid receptor (MOR)) [nM] | PCO2, 5 min before administration (SD rats) [mmHg] | PCO2, 5 min after administration (SD rats) [mmHg] | PCO2, 30 min after administration (SD rats) [mmHg] | PCO2, 60 min after administration (SD rats) [mmHg] | PCO2, 120 min after administration (SD rats) [mmHg] | AUC [1] [ng·h/mL] | half-life [1] [h] | Cmax [1] [ng/mL]
FC(F)Oc1ccccc1CNCCC1(c2ccccn2)CCOC2(CCCC2)C1 (stereo not shown) [Example H16, (2-difluoromethoxybenzyl)-[2-(9-(pyridin-2-yl)-6-oxaspiro[4.5]decan-9-yl)ethyl]amine] | 9.06 | 35.27 ± 0.43 | 30.48 ± 1.24 | 30.03 ± 0.62 | 31.27 ± 1.2 | 31.83 ± 1.40 | 1190 ± 54 | 5.3 ± 0.02 | 820 ± 37.5
FC(F)(F)Oc1ccc(Cl)cc1CNCCC1(c2ccccn2)CCOC2(CCCC2)C1 (stereo not shown) [Example H17, (5-chloro-2-trifluoromethoxybenzyl)-[2-(9-(pyridin-2-yl)-6-oxaspiro[4.5]decan-9-yl)ethyl]amine] | 8.68 | 34.77 ± 1.88 | 35.48 ± 1.74 | 34.03 ± 1.69 | 34.27 ± 1.4 | 34.83 ± 1.15 | 482 ± 31.8 | 1.45 ± 0.15 | 388 ± 23.3
CNc1ccsc1C(=O)NCCC1(c2ccccn2)CCOC2(CCCC2)C1 (stereo not shown) [Example H24, 3-methylamino-thiophene-2-carboxylic acid [2-(9-pyridin-2-yl-6-oxa-spiro[4.5]decan-9-yl)-ethyl]-amide] | 10.7 | 36.77 ± 1.94 | 36.48 ± 1.80 | 33.03 ± 0.72 | 36.27 ± 1.57 | 36.83 ± 1.73 | 682 ± 21 | 3.05 ± 0.15 | 583 ± 23.3
Cc1c(Cl)cccc1CNCCC1(c2ccccn2)CCOC2(CCCC2)C1 (stereo not shown) [Example H04, (3-chloro-2-methylbenzyl)-[2-(9-(pyridin-2-yl)-6-oxaspiro[4.5]decan-9-yl)ethyl]amine] | 6.05 |  |  |  |  |  | 494 ± 34 | 2.92 ± 0.02 | 378 ± 17.5
FC(F)Oc1ccsc1CNCCC1(c2ccccn2)CCOC2(CCCC2)C1 (stereo not shown) [Example H18, ((3-difluoromethoxythiophen-2-yl)methyl)-[2-(9-(pyridin-2-yl)-6-oxaspiro[4.5]decan-9-yl)ethyl]a mine] | 7.32 | 33.77 ± 0.88 | 35.48 ± 1.54 | 34.03 ± 0.69 | 36.27 ± 1.4 | 34.83 ± 1.45 | 582 ± 11.8 | 3.45 ± 0.55 | 483 ± 23.3
Fc1ccc(C2(CCNCc3ccccc3OC(F)(F)F)CCOC3(CCCC3)C2)nc1 (stereo not shown) [Example H21, {2-[9-(5-fluoro-pyridin-2-yl)-6-oxa-spiro[4.5]decan-9-yl]-ethyl}-(2-(trifluoromethoxy)-phenmethyl)-amine] | 4.02 | 36.77 ± 1.78 | 35.48 ± 1.72 | 36.03 ± 1.42 | 37.27 ± 1.94 | 36.83 ± 1.65 | 382 ± 10.8 | 2.05 ± 0.25 | 283 ± 13.3
